# Reference: publication PMC5773950 (British Journal of Pharmacology, 2018)
# Where two headings read alike, the source gives them in different places. Marks after values point to notes of the source that are not given here.
# Columns and labels:
# [1] = molecular target: human DAT (Homo sapiens, UniProt Q01959); test: cell-based
# [2] = molecular target: T1, 5‐HT1A receptor (Homo sapiens, UniProt P08908); test: biochemical; type: binding
# T1 sequence (P08908 1-422): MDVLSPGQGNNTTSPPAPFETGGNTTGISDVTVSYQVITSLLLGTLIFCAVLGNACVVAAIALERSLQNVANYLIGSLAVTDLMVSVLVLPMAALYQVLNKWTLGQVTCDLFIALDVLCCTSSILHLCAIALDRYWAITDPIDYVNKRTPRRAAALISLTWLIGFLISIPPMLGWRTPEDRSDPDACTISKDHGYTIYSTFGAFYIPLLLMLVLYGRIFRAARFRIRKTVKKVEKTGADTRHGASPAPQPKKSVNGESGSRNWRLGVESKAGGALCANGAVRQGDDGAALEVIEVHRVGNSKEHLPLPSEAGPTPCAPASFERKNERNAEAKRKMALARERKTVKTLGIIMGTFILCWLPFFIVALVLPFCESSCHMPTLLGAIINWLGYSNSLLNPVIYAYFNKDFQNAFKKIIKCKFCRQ
# [3] = in vivo
# [4] = molecular target: human NET (Homo sapiens, UniProt P23975); test: cell-based; type: cell-based
# Chain of human NET (P23975 whole entry): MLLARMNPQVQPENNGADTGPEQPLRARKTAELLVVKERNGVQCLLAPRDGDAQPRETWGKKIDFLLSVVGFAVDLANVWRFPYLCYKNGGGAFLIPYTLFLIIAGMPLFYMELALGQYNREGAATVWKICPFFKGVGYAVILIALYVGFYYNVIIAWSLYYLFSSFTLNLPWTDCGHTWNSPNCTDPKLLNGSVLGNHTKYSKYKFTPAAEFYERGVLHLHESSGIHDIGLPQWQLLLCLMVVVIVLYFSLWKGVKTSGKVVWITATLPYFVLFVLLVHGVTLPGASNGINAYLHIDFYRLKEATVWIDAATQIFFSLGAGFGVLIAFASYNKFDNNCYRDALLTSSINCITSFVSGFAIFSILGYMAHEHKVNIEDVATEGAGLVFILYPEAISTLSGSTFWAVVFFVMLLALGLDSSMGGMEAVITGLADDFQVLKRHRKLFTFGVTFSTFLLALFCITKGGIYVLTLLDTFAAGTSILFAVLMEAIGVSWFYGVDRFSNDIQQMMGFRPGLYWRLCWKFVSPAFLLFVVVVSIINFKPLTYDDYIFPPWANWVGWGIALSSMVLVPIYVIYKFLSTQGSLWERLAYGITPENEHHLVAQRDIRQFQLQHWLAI
# [5] = molecular target: 5‐HT2A receptor (Homo sapiens, UniProt P28223); test: biochemical; type: binding
# Chain of 5‐HT2A receptor (P28223 whole entry): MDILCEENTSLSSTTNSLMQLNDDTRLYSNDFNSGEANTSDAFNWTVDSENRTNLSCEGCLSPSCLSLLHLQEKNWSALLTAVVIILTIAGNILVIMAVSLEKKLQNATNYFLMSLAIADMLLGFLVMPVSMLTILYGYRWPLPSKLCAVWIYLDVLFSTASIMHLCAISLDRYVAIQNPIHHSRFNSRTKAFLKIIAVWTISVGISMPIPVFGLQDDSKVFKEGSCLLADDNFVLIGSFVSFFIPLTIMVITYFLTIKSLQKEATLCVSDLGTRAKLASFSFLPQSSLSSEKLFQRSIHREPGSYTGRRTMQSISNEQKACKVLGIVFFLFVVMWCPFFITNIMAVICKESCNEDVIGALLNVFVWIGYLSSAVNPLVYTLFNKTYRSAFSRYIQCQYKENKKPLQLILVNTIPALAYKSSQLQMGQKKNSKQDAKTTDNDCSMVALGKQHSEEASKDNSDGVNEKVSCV
# [6] = molecular target: human SERT (Homo sapiens, UniProt P31645); test: cell-based
# Chain of human SERT (P31645 whole entry): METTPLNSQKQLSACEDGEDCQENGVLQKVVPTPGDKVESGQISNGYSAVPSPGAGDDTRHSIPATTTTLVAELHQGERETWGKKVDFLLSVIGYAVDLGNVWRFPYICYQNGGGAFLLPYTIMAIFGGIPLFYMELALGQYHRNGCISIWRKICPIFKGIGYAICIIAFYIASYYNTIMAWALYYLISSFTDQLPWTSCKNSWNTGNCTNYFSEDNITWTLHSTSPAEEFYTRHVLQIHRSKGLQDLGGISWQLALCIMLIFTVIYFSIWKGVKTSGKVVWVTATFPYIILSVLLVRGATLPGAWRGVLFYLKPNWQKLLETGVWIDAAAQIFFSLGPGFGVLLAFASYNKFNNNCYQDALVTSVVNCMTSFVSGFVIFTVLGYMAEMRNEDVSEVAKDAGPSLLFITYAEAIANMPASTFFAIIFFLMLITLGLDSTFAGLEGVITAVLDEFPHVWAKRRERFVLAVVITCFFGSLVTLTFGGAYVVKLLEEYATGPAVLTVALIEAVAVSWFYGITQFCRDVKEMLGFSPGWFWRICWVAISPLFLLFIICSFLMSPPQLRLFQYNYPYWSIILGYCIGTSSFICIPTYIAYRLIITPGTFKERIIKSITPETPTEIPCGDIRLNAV
# [7] = human
# [8] = human; remark: listed apart in the source
# Chain of human DAT (Q01959 whole entry): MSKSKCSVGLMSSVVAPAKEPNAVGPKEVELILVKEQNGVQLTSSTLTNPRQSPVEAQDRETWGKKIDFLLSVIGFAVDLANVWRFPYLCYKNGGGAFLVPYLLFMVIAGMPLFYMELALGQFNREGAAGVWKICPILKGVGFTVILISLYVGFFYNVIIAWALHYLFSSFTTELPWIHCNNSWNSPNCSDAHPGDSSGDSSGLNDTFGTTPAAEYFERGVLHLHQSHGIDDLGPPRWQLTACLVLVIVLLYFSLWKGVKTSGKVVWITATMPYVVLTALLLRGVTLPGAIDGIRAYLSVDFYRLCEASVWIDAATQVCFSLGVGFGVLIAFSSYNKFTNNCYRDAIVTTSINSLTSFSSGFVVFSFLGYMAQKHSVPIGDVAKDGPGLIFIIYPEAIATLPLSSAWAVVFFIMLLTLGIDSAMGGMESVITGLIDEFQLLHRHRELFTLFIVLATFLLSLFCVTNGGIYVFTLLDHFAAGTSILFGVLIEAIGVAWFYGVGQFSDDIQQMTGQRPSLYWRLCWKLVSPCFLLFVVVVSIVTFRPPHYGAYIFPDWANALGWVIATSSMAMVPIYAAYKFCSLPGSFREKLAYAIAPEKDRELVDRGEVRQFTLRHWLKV
SMILES,IC50 ([1]; read-out: DAT IC50 (95% CI)),Ki ([2]; read-out: 5‐HT1A Receptor binding Ki ± SD),"Cu,brain [3]",IC50 ([4]; read-out: NET IC50 (95% CI)),Ki ([5]; read-out: 5‐HT2A Receptor binding Ki ± SD),IC50 [6],IC50 [1],Ki [2],IC50 [4],Ki [5],"WHO database: cases of serotonin syndrome, only suspected cause [7]","WHO database: cases of serotonin syndrome, only suspected cause or among others [7]",Medline database: number of published cases of serotonin syndrome [8],"Cu,brain ([3]; human)"
"CN(C)C[C@H]1CCCC[C@]1(O)c1cccc(O)c1 (relative stereo) [O‐desmethyltramadol, O‐desmethyl‐cis‐tramadol]",> 100 µM,> 17 µM,0.1–1.1 ^k μM,6.1 µM,> 13 µM,–,–,–,–,–,–,–,–,–
"CC(=O)O[C@H]1C=C[C@H]2[C@H]3Cc4ccc(O)c5c4[C@@]2(CCN3C)[C@H]1O5 [6‐Acetylmorphine, 6‐acetylmorphine]",–,–,–,–,–,> 100 µM,> 100 µM,> 17 µM,> 100 µM,> 13 µM,–,–,–,–
CN(C)CCCC1(c2ccc(F)cc2)OCc2cc(C#N)ccc21 (stereo not shown) [Citalopram],–,–,–,–,–,–,–,–,–,–,178,777,57,–
COc1ccc2c3c1O[C@H]1[C@@H](O)C=C[C@H]4[C@@H](C2)N(C)CC[C@@]341 [Codeine],–,–,–,–,–,> 100 µM,> 100 µM,> 17 µM,> 100 µM,> 13 µM,0,32,0,–
COc1ccc2c(c1)[C@]13CCCC[C@@H]1[C@H](C2)N(C)CC3 [Dextromethorphan],–,–,–,–,–,–,> 100 µM,> 17 µM,5.8 µM,–,7,86,12,0–0.44 ^d μM
COc1ccc2c3c1O[C@H]1[C@@H](O)CC[C@H]4[C@@H](C2)N(C)CC[C@@]341 [Dihydrocodeine],–,–,–,–,–,> 100 µM,> 100 µM,> 17 µM,> 100 µM,> 13 µM,0,4,0,–
CNCC[C@H](Oc1cccc2ccccc12)c1cccs1 [Duloxetine],–,–,–,–,–,–,–,–,–,–,550,993,20,–
CNCCC(Oc1ccc(C(F)(F)F)cc1)c1ccccc1 (stereo not shown) [Fluoxetine],–,–,–,–,–,–,–,–,–,–,181,641,54,–
"CC(=O)Oc1ccc2c3c1O[C@H]1[C@@H](OC(C)=O)C=C[C@H]4[C@@H](C2)N(C)CC[C@@]341 [Heroin, diacetylmorphine]",–,–,–,–,–,> 100 µM,> 100 µM,> 17 µM,> 100 µM,> 13 µM,–,–,–,–
COc1ccc2c3c1O[C@H]1C(=O)CC[C@H]4[C@@H](C2)N(C)CC[C@]314 [Hydrocodone],–,–,–,–,–,> 100 µM,> 100 µM,> 17 µM,> 100 µM,> 13 µM,0,6,2,–
